Like-named read-outs stand apart in the source and are kept apart here.
How the values were obtained:
MKN-45 = experiment: Inhibition of MKN-45 proliferation (MTT); assay type: cell-based, human; conditions: Homo sapiens, MKN-45 proliferation; for inhibition at 0.1 µM: 100 nM, read-out: MKN45 % inhibition @ 100 nM; for GI50: read-out: MKN45 GI50
In short: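 High-Met human gastric adenocarcinoma MKN-45 cells plated on day 1 and exposed to compound from day 2. Viability measured by MTT dye reduction on day 5; output given as % inhibition at 100 nM and GI50.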

[1] = molecular target: T1, human recombinant Met kinase (Homo sapiens, UniProt P08581); experiment: Colorimetric determination of c-Met kinase activity (HTScan Met Kinase Assay Kit); assay type: biochemical; conditions: read-out: c-Met Enzyme IC50
T1 construct: purchased Cell Signalling Technology, Beverly, Mass
T1 sequence (P08581 25-1390): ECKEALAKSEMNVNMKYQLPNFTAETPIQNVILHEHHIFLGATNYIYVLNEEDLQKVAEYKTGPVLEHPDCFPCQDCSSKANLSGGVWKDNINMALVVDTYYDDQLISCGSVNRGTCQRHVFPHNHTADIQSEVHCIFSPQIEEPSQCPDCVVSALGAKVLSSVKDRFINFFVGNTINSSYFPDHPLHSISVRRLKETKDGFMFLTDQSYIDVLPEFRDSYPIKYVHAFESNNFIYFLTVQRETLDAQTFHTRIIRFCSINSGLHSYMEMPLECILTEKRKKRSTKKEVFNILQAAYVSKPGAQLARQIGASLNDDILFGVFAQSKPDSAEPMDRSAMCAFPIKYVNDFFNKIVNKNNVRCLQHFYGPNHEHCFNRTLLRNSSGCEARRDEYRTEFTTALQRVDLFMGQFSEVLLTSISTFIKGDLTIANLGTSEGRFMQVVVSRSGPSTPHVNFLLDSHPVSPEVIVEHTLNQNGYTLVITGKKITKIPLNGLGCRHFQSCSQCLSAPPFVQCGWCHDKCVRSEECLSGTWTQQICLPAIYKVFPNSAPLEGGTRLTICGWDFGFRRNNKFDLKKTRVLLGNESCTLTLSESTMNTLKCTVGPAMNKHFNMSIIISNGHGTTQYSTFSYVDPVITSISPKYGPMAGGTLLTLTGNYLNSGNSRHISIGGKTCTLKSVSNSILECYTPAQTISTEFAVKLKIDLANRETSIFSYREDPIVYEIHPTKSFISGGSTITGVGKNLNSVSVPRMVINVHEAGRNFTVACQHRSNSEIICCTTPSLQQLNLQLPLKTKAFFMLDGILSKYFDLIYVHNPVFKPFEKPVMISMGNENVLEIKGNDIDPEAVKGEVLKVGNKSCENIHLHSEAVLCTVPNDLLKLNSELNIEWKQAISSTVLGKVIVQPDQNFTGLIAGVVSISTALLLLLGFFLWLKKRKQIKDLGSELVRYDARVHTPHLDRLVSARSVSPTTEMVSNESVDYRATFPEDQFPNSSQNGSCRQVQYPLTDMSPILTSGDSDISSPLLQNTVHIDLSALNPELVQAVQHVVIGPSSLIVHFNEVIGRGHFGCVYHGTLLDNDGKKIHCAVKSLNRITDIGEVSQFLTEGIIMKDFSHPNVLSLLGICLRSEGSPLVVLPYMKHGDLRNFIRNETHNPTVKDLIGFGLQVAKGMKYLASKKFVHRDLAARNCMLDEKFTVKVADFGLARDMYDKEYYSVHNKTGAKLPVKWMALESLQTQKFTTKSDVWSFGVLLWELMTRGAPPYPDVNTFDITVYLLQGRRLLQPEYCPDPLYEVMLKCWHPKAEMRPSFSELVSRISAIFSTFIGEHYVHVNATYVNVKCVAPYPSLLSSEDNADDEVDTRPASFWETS

[2] = molecular target: T1, human recombinant Met kinase; experiment: as above; assay type: biochemical; conditions: for inhibition: cells marked *: tested @ 300 nM, read-out: c-Met Enzyme % inhibition; for inhibition at 0.1 µM: 100 nM (cells without *), read-out: c-Met Enzyme % inhibition @ 100 nM
In short: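 Human recombinant Met kinase was preincubated with compound for 5 min at room temperature, then reacted with ATP and biotinylated peptide for 30 min; EDTA stop. Phosphopeptide captured on streptavidin and detected with phospho-tyrosine mAb and europium anti-mouse IgG by time-resolved fluorescence (340/615 nm). Reported as % inhibition or IC50.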

NC(=O)c1ccc(-c2ccc3ncn(Cc4ccc5ncccc5c4)c3n2)cc1Cl [Example 1008, 2-Chloro-4-(3-(quinolin-6-ylmethyl)-3H-imidazo[4,5-b]pyridin-5-yl)benzamide]
inhibition at 0.1 µM (MKN-45; MKN-45, Table 4C): 25 to 50% | GI50 (MKN-45; MKN-45, Table 4C): 0.1 to 0.25 µM | IC50 ([1]; Table 4C): 0.05 to 0.1 µM | inhibition ([2]; Table 4C): 75 to 100%

Cc1ccc2cc(Cn3nnc4ccc(-c5ccc(C(=O)NOCCO)c(Cl)c5)nc43)ccc2n1 [Example 17, 2-chloro-N-(2-hydroxyethoxy)-4-(3-((2-methylquinolin-6-yl)methyl)-3H-[1,2,3]triazolo[4,5-b]pyridin-5-yl) benzamide]
inhibition at 0.1 µM ([2]; Table 4A): < 25% | melting point: 219 to 222 °C

CC(=O)OCCONC(=O)c1ccc(-c2ccc3nnn(Cc4ccc5ncccc5c4)c3n2)cc1Cl [Example 11, 2-(2-chloro-4-(3-(quinolin-6-ylmethyl)-3H-[1,2,3]triazolo[4,5-b]pyridin-5-yl)benzamidooxy)ethyl acetate]
inhibition at 0.1 µM ([2]; Table 4A): 75 to 100% | melting point: 168 to 170 °C

Cc1cc(-c2ccc3ncn(Cc4cc5cccnc5cc4F)c3n2)ccc1C(N)=O [Example 1025, 4-[3-(7-Fluoro-quinolin-6-ylmethyl)-3H-imidazo[4,5-b]pyridin-5-yl]-2-methyl-benzamide]
GI50 (MKN-45; MKN-45, Table 4C): 0.05 to 0.1 µM | IC50 ([1]; Table 4C): < 0.025 µM | inhibition at 0.1 µM ([2]; Table 4C): 75 to 100%

CON=C(C)c1ccc2nnn(Cc3cc4cccnc4cc3F)c2n1 (racemic) [Example 60, 1-(3-((7-fluoroquinolin-6-yl)methyl)-3H-[1,2,3]triazolo[4,5-b]pyridin-5-yl) ethanone O-methyl oxime]
GI50 (MKN-45; MKN-45, Table 4A): 0.05 to 0.1 µM | IC50 ([1]; Table 4A): 0.025 to 0.05 µM | inhibition ([2]; Table 4A): 75 to 100%

O=C(CNC(=O)c1ccccc1)OCCONC(=O)c1ccc(-c2ccc3nnn(Cc4ccc5ncccc5c4)c3n2)cc1Cl [Example 16, 2-(2-chloro-4-(3-(quinolin-6-ylmethyl)-3H-[1,2,3]triazolo[4,5-b]pyridin-5-yl)benzamidooxy)ethyl 2-benzamidoacetate]
inhibition at 0.1 µM ([2]; Table 4A): 75 to 100% | melting point: 110 to 112 °C

CN(C)CCNC(=O)c1c(F)cc(-c2ccc3ncn(Cc4ccc5ncccc5c4)c3n2)cc1F [Example 104, N-(2-(dimethylamino)ethyl)-2,6-difluoro-4-(3-(quinolin-6-ylmethyl)-3H-imidazo[4,5-b]pyridin-5-yl) benzamide]
inhibition at 0.1 µM (MKN-45; MKN-45, Table 4B): < 25% | IC50 ([1]; Table 4B): 0.1 to 0.25 µM | inhibition ([2]; Table 4B): 50 to 75%

C/C(=N\NC(N)=S)c1ccc2nnn(Cc3ccc4ncccc4c3)c2n1 [Example 50, 2-(1-(3-(quinolin-6-ylmethyl)-3H-[1,2,3]triazolo[4,5-b]pyridin-5-yl)ethylidene)hydrazinecarbothioamide]
inhibition at 0.1 µM (MKN-45; MKN-45, Table 4A): 75 to 100% | GI50 (MKN-45; MKN-45, Table 4A): 0.025 to 0.05 µM | IC50 ([1]; Table 4A): 0.025 to 0.05 µM | inhibition ([2]; Table 4A): 75 to 100%

C[C@H](O)CNC(=O)c1ccc(-c2ccc3ncn(Cc4ccc5ncccc5c4)c3n2)cc1F [Example 110, (S)-2-fluoro-N-(2-hydroxypropyl)-4-(3-(quinolin-6-ylmethyl)-3H-imidazo[4,5-b]pyridin-5-yl)benzamide]
inhibition at 0.1 µM ([2]; Table 4B): 75 to 100% | melting point: 166 to 169 °C

C[C@@H](O)CNC(=O)c1ccc(-c2ccc3ncn(Cc4ccc5ncccc5c4)c3n2)cc1F [Example 109, (R)-2-fluoro-N-(2-hydroxypropyl)-4-(3-(quinolin-6-ylmethyl)-3H-imidazo[4,5-b]pyridin-5-yl)benzamide]
inhibition at 0.1 µM ([2]; Table 4B): 75 to 100% | melting point: 151 to 158 °C

NC(=O)c1ccc(-c2ccc3ncn(Cc4cc5cccnc5cc4F)c3n2)cc1Cl [Example 1022, 2-chloro-4-(3-((7-fluoroquinolin-6-yl)methyl)-3H-imidazo[4,5-b]pyridin-5-yl)benzamide]
inhibition at 0.1 µM (MKN-45; MKN-45, Table 4C): 50 to 75% | GI50 (MKN-45; MKN-45, Table 4C): 0.05 to 0.1 µM | IC50 ([1]; Table 4C): < 0.025 µM

Cc1cc(-c2ccc3nnn(Cc4ccc5c(ccc[n+]5[O-])c4)c3n2)ccc1C(=O)NOCC(C)(C)O [Example 41, N-(2-Hydroxy-2-methyl-propoxy)-2-methyl-4-[3-(1-oxy-quinolin-6-ylmethyl)-3H-[1,2,3]triazolo[4,5-b]pyridin-5-yl]-benzamide]
melting point: 160 to 162 °C

CNC(=O)c1ccc(-c2ccc3ncn(Cc4ccc5ncccc5c4)c3n2)cn1 [Example 1031, 5-(3-Quinolin-6-ylmethyl-3H-imidazo[4,5-b]pyridin-5-yl)-pyridine-2-carboxylic acid methylamide]
inhibition at 0.1 µM ([2]; Table 4C): < 25% | melting point: 219 to 221 °C

CNC(=O)c1ccc(-c2ccc3ncn(Cc4ccc5ncccc5c4)c3n2)cc1C [Example 1030, 2,N-Dimethyl-4-(3-quinolin-6-ylmethyl-3H-imidazo[4,5-b]pyridin-5-yl)-benzamide]
inhibition at 0.1 µM ([2]; Table 4C): < 25% | melting point: 118 to 120 °C

CC(C)C(=O)OCCONC(=O)c1ccc(-c2ccc3nnn(Cc4ccc5ncccc5c4)c3n2)cc1Cl [Example 15, 2-(2-chloro-4-(3-(quinolin-6-ylmethyl)-3H-[1,2,3]triazolo[4,5-b]pyridin-5-yl)benzamidooxy)ethyl isobutyrate]
inhibition at 0.1 µM ([2]; Table 4A): 75 to 100% | melting point: 115 to 118 °C

NC(=O)c1ccc(-c2ccc3ncn(Cc4cc5cccnc5cc4F)c3n2)cc1C(F)(F)F [Example 1026, 4-[3-(7-Fluoro-quinolin-6-ylmethyl)-3H-imidazo[4,5-b]pyridin-5-yl]-2-trifluoromethyl-benzamide]
inhibition at 0.1 µM ([2]; Table 4C): 25 to 50% | melting point: 239 to 241 °C

C/C(=N\NC(N)=O)c1ccc2ncn(Cc3ccc4ncccc4c3)c2n1 [Example 107, 2-(1-(3-(quinolin-6-ylmethyl)-3H-imidazo[4,5-b]pyridin-5-yl)ethylidene)hydrazinecarboxamide]
inhibition at 0.1 µM (MKN-45; MKN-45, Table 4B): < 25% | GI50 (MKN-45; MKN-45, Table 4B): 0.25 to 1 µM | IC50 ([1]; Table 4B): 0.1 to 0.25 µM

CC(C)(CO)ONC(=O)c1ccc(-c2ccc3nnn(Cc4ccc5ncccc5c4)c3n2)cc1Cl [Example 40, 2-chloro-N-(1-hydroxy-2-methylpropan-2-yloxy)-4-(3-(quinolin-6-ylmethyl)-3H-[1,2,3]triazolo[4,5-b]pyridin-5-yl)benzamide]
inhibition at 0.1 µM ([2]; Table 4A): 75 to 100% | melting point: 148 to 150 °C

NC(=O)c1ccc(-c2ccc3ncn(Cc4c(F)cc5ncccc5c4F)c3n2)cc1Cl [Example 1023, 2-chloro-4-(3-((5,7-difluoroquinolin-6-yl)methyl)-3H-imidazo[4,5-b]pyridin-5-yl)benzamide]
inhibition at 0.1 µM (MKN-45; MKN-45, Table 4C): 50 to 75% | GI50 (MKN-45; MKN-45, Table 4C): < 0.025 µM | IC50 ([1]; Table 4C): < 0.025 µM | inhibition ([2]; Table 4C): 75 to 100%

CC(C)(C)C(=O)OCCONC(=O)c1ccc(-c2ccc3nnn(Cc4ccc5ncccc5c4)c3n2)cc1Cl [Example 14, 2-(2-chloro-4-(3-(quinolin-6-ylmethyl)-3H-[1,2,3]triazolo[4,5-b]pyridin-5-yl)benzamidooxy)ethyl pivalate]
inhibition at 0.1 µM ([2]; Table 4A): 75 to 100% | melting point: 130 to 133 °C

C[C@H](N)C(=O)OCCONC(=O)c1ccc(-c2ccc3nnn(Cc4ccc5ncccc5c4)c3n2)cc1Cl [Example 13, (S)-2-(2-chloro-4-(3-(quinolin-6-ylmethyl)-3H-[1,2,3]triazolo[4,5-b]pyridin-5-yl)benzamidooxy)ethyl 2-aminopropanoate]
inhibition at 0.1 µM ([2]; Table 4A): 75 to 100% | melting point: 175 to 177 °C

C/C(=N\NC(N)=S)c1ccc2nnn(Cc3cc4cccnc4cc3F)c2n1 [Example 57, 2-(1-(3-((7-fluoroquinolin-6-yl)methyl)-3H-[1,2,3]triazolo[4,5-b]pyridin-5-yl)ethylidene)hydrazinecarbothioamide]
inhibition at 0.1 µM (MKN-45; MKN-45, Table 4A): 50 to 75% | GI50 (MKN-45; MKN-45, Table 4A): 0.025 to 0.05 µM | IC50 ([1]; Table 4A): 0.025 to 0.05 µM | inhibition ([2]; Table 4A): 75 to 100%

C/C(=N\OCCN)c1ccc2nnn(Cc3ccc4ncccc4c3)c2n1 [Example 63, 1-(3-(quinolin-6-ylmethyl)-3H-[1,2,3]triazolo[4,5-b]pyridin-5-yl)ethanone O-2-aminoethyl oxime]
inhibition at 0.1 µM (MKN-45; MKN-45, Table 4A): < 25% | GI50 (MKN-45; MKN-45, Table 4A): 0.25 to 1 µM | IC50 ([1]; Table 4A): 0.025 to 0.05 µM | inhibition ([2]; Table 4A): 75 to 100%

Cc1cc(-c2ccc3ncn(Cc4c(F)cc5ncccc5c4F)c3n2)ccc1C(N)=O [Example 1027, 4-[3-(5,7-Difluoro-quinolin-6-ylmethyl)-3H-imidazo[4,5-b]pyridin-5-yl]-2-methyl-benzamide]
inhibition at 0.1 µM (MKN-45; MKN-45, Table 4C): 75 to 100% | inhibition at 0.1 µM ([2]; Table 4C): 75 to 100% | melting point: 158 to 160 °C

NC(=O)c1c(F)cc(-c2ccc3nnn(Cc4ccc5ncccc5c4)c3n2)cc1F [Example 1003, 2,6-difluoro-4-(3-(quinolin-6-ylmethyl)-3H-[1,2,3]triazolo[4,5-b]pyridin-5-yl)benzamide 2,2,2-trifluoroacetate]
IC50 ([1]; Table 4C): < 0.025 µM | inhibition ([2]; Table 4C): 75 to 100%

C/C(=N\OCCO)c1ccc2nnn(Cc3cc4cccnc4cc3F)c2n1 [Example 61, 1-(3-((7-fluoroquinolin-6-yl)methyl)-3H-[1,2,3]triazolo[4,5-b]pyridin-5-yl) ethanone O-2-hydroxyethyl oxime]
GI50 (MKN-45; MKN-45, Table 4A): 0.05 to 0.1 µM | IC50 ([1]; Table 4A): 0.025 to 0.05 µM | inhibition ([2]; Table 4A): 75 to 100%

Source: patent US9815831B2, “3,5-disubstituted-3H-imidazo[4,5-B]pyridine and 3,5-disubstituted-3H-[1,2,3]triazolo[4,5-B] pyridine compounds as modulators of c-Met protein kinases” (Rhizen Pharmaceuticals SA, priority 2012, dated 2017)
